Data on 35 compounds can be found in patent publication US6579881B2 (Eisai Co., Ltd., priority 1997, dated 2003).

For one experiment, the target named is T1, serotonin 1A receptor (Rattus norvegicus, UniProt P19327).
T1 construct: To the receptor fraction of the hippocampus were added a test compound and 0.5 nM of [^3H]; 8-hydroxy-dipropylaminotetralin; from tissue; host or cells: SD rat hippocampus, membrane (receptor) fraction
T1 sequence (P19327 1-422): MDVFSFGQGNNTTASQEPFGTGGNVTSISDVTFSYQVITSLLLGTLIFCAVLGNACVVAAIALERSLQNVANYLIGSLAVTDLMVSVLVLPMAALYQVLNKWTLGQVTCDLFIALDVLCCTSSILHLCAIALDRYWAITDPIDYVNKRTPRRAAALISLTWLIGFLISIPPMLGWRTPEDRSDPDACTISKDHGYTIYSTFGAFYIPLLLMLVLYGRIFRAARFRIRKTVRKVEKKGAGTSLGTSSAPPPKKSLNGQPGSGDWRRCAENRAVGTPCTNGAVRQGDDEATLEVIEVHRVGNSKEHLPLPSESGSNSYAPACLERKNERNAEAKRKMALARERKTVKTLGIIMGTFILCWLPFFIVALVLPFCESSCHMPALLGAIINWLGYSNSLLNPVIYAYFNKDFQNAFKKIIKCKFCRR
The experiment in a line: Binding test on [3H] 8-hydroxy-dipropylaminotetralin (serotonin 1A receptor). The following applies: [3H] 8-OH-DPAT 0.5 nM, receptor fraction of rat hippocampus; read-out: 5HT1a.

The target in the next experiment is serotonin 2 receptor (Rattus norvegicus, UniProt P14842). Put plainly: Binding test on [3H] ketanserin (serotonin 2 receptor). The settings on record: [3H] ketanserin 0.3 nM, receptor fraction of rat cerebral cortex; read-out: 5HT2.
The target of the next experiment is α1 adrenalin receptor. The experiment in a line: Binding test on [3H] prazosin (α1 adrenalin receptor). The arrangement: species or system rat. The settings on record: [3H] prazosin about 0.2 nM, receptor fraction of rat cerebral cortex.

Counter-ions that a name gives are not always drawn.

Chain of serotonin 2 receptor (P14842 whole entry): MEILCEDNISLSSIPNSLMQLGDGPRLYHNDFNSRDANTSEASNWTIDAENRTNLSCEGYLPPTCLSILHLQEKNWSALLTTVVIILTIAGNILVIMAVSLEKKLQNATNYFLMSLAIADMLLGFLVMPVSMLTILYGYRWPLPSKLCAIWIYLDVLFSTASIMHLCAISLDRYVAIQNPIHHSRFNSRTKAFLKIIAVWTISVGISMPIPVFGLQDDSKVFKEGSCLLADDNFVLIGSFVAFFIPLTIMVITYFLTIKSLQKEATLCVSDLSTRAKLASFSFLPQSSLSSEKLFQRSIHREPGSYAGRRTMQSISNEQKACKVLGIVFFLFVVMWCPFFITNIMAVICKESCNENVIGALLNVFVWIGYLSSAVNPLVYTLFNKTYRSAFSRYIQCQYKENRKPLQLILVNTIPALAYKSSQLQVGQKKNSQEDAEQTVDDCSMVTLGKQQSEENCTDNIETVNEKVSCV
Experimental for serotonin 2 receptor: (§1) Use was made of SD rats aged 6 to 8 weeks.
(§2) The rats were sacrificed by dcapitation to extirpate the cerebra.
(§3) The hippocampus was mixed with 50 times (on the wet weight basis) as much a 0.32 M sucrose solution while the cortex was mixed with 10 times as much the same solution. Each mixture was homogenized by using a Teflon glass homogenizer and centrifuged at 1,000×g for 10 min. The supernatant thus obtained was further centrifuged at 20,000×g for 20 min. The obtained precipitate was re-suspended in 50 times (based on the intial wet weight; in the case of the hippocampus) or 10 times (in the case of the cortex) as much a 50 mM Tris hydrochloride (pH 7.4) and incubated at room temperature for 30 min. After centrifuging at 20,000×g for 20 min, the obtained precipitate was further suspended and centrifuged twice each in the same manner. The precipitate thus obtained was suspended in 100 times (based on the initial wet weight; in the case of the hippocampus) or 20 times (in the case of the cortex) as much a 50 mM Tris hydrochloride solution (pH 7.4) to thereby give a receptor fraction. This receptor fraction was stored at −80° C. until using.
(Binding Test on [^3H] Ketanserin)
Next, it was filtered through a glass filter with the use of a cell harvester. After washing the glass filter with 50 mM Tris hydrochloride (pH 7.4), the radioactivity of the receptor was measured with a liquid scintillation counter. The binding detected in the presence of 1 μM of methysergide was referred to as the nonspecific binding.
IC50 was calculated by the probit method, while Ki was determined in accordance with the following formula:
wherein c represents the concentration of the radioisotope-labeled compound, and Kd represents the dissociation constant of the radioisotope-labeled compound with respect to the receptor determined by Scatchard's analysis.
Experimental for α1 adrenalin receptor: Methysergide maleate was dissolved in distilled water before using.
as §1, §2, §3
(Binding Test on [^3H] Prazosin)
Next, it was filtered through a glass filter with the use of a cell harvester. After washing the glass filter with 50 mM Tris hydrochloride (pH 7.4), the radioactivity of the receptor was measured with a liquid scintillation counter. The binding detected in the presence of 10 μM of phentolamine was referred to as the nonspecific binding.
Subsequently, the abilities of typical examples of the compounds of the present invention to bind to the α1 adrenalin receptor were evaluated by the test method described above.

As to “1-[1-(4-fluorophenethyl)piperidin-4-yl]-7-hydroxy-(4a,7a)-cyclohexanoindoline and 1-[1-(4-fluorophenethyl)piperidin-4-yl]-4-hydroxy-(3b,6a)-cyclohexanoindoline [Example 236]”, the Ki at serotonin 1A receptor was 29.2 nM; on serotonin 2 receptor, 10.6 nM; on α1 adrenalin receptor, 72.2 nM.

`Cc1nc2sccn2c(=O)c1CCN1CCC(N2CCc3ccccc32)CC1` [Co. No. 5 given in WO96/23784, 1-{1-[2-(5-oxo-7-methyl-5H-pyrimidino[2,1-b][1,3]thiazol-6-yl)ethyl]piperidin-4-yl}indoline, reference compound] had a Ki at α1 adrenalin receptor of 16.8 nM.

Regarding `CN1CCC(N2CCc3ccc(NS(=O)(=O)c4ccc(F)cc4)cc32)CC1` [Example 237, 1-(1-methylpiperidin-4-yl)-6-(4-fluorobenzenesulfonylamino)indoline], the Ki on serotonin 1A receptor was 30.4 nM; at serotonin 2 receptor it was greater than 200 nM.

Turning to `CCN1CCC(N2CCc3ccc(NS(=O)(=O)c4ccc(F)cc4)cc32)CC1` [Example 238, 1-(1-ethylpiperidin-4-yl)-6-(4-fluorobenzenesulfonylamino)indoline], the Ki is 86.6 nM on serotonin 1A receptor and greater than 200 nM on serotonin 2 receptor.

Consider `CCN1CCC(N2CC(c3ccc(F)cc3)c3ccccc32)CC1` (stereo not shown) [Example 240, 1-(1-ethylpiperidin-4-yl)-3-(4-fluorophenyl)indoline], for which the Ki on serotonin 1A receptor is greater than 200 nM; on serotonin 2 receptor, 27.6 nM.

For the compound `CCN1CCC(N2CC(c3ccc(OC)cc3)c3ccccc32)CC1` (stereo not shown) [Example 241, 1-(1-ethylpiperidin-4-yl)-3-(4-methoxyphenyl)indoline], the Ki on serotonin 1A receptor is 360 nM; on serotonin 2 receptor, 1660 nM.

Regarding `CCN1CCC(N2CC(Cc3ccc(OC)cc3)c3ccccc32)CC1` (stereo not shown) [Example 242, 1-(1-ethylpiperidin-4-yl)-3-(4-methoxybenzyl)indoline], the results for the Ki on serotonin 1A receptor and at serotonin 2 receptor were greater than 200 nM and 2.3 nM, respectively.

Consider `CCN1CCC(CN2CC(Cc3ccc(OC)cc3)c3ccccc32)CC1` (stereo not shown) [Example 243, 1-[(1-ethylpiperidin-4-yl)methyl]-3-(4-methoxybenzyl)indoline], for which the Ki is greater than 200 nM on serotonin 1A receptor and 53 nM on serotonin 2 receptor.

Take `CCN1CCC(N2CC(Cc3ccc(F)cc3)c3ccccc32)CC1` (stereo not shown) [Example 244, 1-(1-ethylpiperidin-4-yl)-3-(4-fluorobenzyl)indoline]: the results for the Ki on serotonin 1A receptor and on serotonin 2 receptor were greater than 200 nM and 2.5 nM, respectively.

Regarding `CCN1CCC(N2CC(Cc3cccnc3)c3ccccc32)CC1` (stereo not shown) [Example 245, 1-(1-ethylpiperidin-4-yl)-3-(3-pyridylmethyl)indoline], the Ki is greater than 200 nM at serotonin 1A receptor and 11.2 nM on serotonin 2 receptor.

For the compound `CCN1CCC(N2CC(CCc3cccc(OC)c3)c3ccccc32)CC1` (stereo not shown) [Example 246, 1-(1-ethylpiperidin-4-yl)-3-(3-methoxyphenethyl)indoline], the Ki on serotonin 1A receptor was greater than 200 nM; on serotonin 2 receptor, 60 nM.

As for `CCN1CCC(N2CC(CCc3cccc(F)c3)c3ccccc32)CC1` (stereo not shown) [Example 247, 1-(1-ethylpiperidin-4-yl)-3-(3-fluorophenethyl)indoline], the Ki on serotonin 1A receptor is greater than 200 nM; on serotonin 2 receptor it was 52.9 nM.

As to `COc1ccc(CCN2CCC(C3CCc4ccccc43)CC2)cc1` (stereo not shown) [Example 249, 1-[1-(4-methoxyphenethyl)piperidin-4-yl]indan], the Ki came out at 2.1 nM at serotonin 1A receptor and 20.2 nM at serotonin 2 receptor.

In the case of `CCN1CCN(C2CCc3ccc(OC)cc32)CC1` (stereo not shown) [Example 251, 1-(4-ethylpiperazin-1-yl)-6-methoxyindan Hydrochloride], the Ki at serotonin 1A receptor was 58.5 nM; at serotonin 2 receptor, greater than 200 nM.

For `CCN1CCN([C@@H]2c3ccccc3CC2N(C)Cc2ccc(F)cc2)CC1` (stereo partly shown) [Example 254], the Ki at serotonin 1A receptor is greater than 200 nM; on serotonin 2 receptor, 177 nM.

As to `OC1(C2CCc3cccnc32)CCN(CCc2ccc(F)cc2)CC1` (stereo not shown) [Example 255, 7-[4-hydroxy-1-(4-fluorophenethyl)piperidin-4-yl]-5,6-dihydro-7H-pyrindine], the Ki at serotonin 1A receptor is greater than 200 nM; at serotonin 2 receptor, 15.7 nM.

On to `Fc1ccc(CCN2CCC(=C3CCc4cccnc43)CC2)cc1` [Example 256, 7-[1-(4-fluorophenethyl)piperidin-4-ylidene]-5,6-dihydropyrindine], for which the values for the Ki at serotonin 1A receptor and on serotonin 2 receptor were 0.4 nM and 12.1 nM, respectively.

Turning to `Fc1ccc(CCN2CCC(C3CCc4cccnc43)CC2)cc1` (stereo not shown) [Example 257, 7-[1-(4-fluorophenethyl)piperidin-4-yl]-5,6-dihydro-7H-pyrindine], the Ki amounted to 2.8 nM at serotonin 1A receptor and 0.61 nM at serotonin 2 receptor.

As for `Fc1ccc(CCN2CCC(N3CCc4ccc(Cl)nc43)CC2)cc1` [Example 259, 1-[1-(4-fluorophenethyl)piperidin-4-yl]-6-chloro-7-azaindoline], the figures for the Ki on serotonin 1A receptor and on serotonin 2 receptor were 0.6 nM and 5.9 nM, respectively.

For the compound `Fc1ccc(CCN2CCC(N3CCc4cccnc43)CC2)cc1` [Example 260, 1-[1-(4-fluorophenethyl)piperidin-4-yl]-7-azaindoline], the Ki on serotonin 1A receptor came to 1.3 nM; at serotonin 2 receptor it was 12.9 nM.

As to `Fc1ccc(CCN2CCC(N3CCc4ccc(F)nc43)CC2)cc1` [Example 261, 1-[1-(4-fluorophenethyl)piperidin-4-yl]-6-fluoro-7-azaindoline], the Ki was found to be 1.5 nM on serotonin 1A receptor and 5.3 nM on serotonin 2 receptor.

`Fc1ccc(CCN2CCC(N3CCc4ccc(Cl)nc43)CC2)c(F)c1` [Example 262, 1-[1-(2,4-difluorophenethyl)piperidin-4-yl]-6-chloro-7-azaindoline]: the Ki at serotonin 1A receptor came to 1.5 nM; on serotonin 2 receptor it was 2.1 nM.

Regarding `COc1ccc(CCN2CCC(N3CCc4ccc(Cl)nc43)CC2)cc1` [Example 263, 1-[1-(4-methoxyphenethyl)piperidin-4-yl]-6-chloro-7-azaindoline], the Ki is 0.46 nM at serotonin 1A receptor and greater than 200 nM on serotonin 2 receptor.

Take `Fc1ccc(CCN2CCC(N3CCc4ccncc43)CC2)cc1` [Example 264, 1-[1-(4-fluorophenethyl)piperidin-4-yl]-6-azaindoline]: the Ki was 11.3 nM at serotonin 1A receptor and 139 nM on serotonin 2 receptor.

`CC1CC(=C2CCN(CCc3ccc(F)cc3)CC2)c2nccnc21` (stereo not shown) [Example 265, 5-[1-(4-fluorophenethyl)piperidin-4-ylidene]-7-methyl-5,6-dihydrocyclopentapyrazine]: the Ki at serotonin 1A receptor is 25.2 nM; on serotonin 2 receptor, 34.2 nM.

As for `OCCOc1ccc2c(c1)CCCC2C1CCN(CCc2ccc(F)cc2)CC1` (stereo not shown) [Example 278, 1-[2-(4-fluorophenyl)ethyl]-4-[6-(2-hydroxy)ethoxy-1,2,3,4-tetrahydronaphthalen-1-yl]piperidine], the Ki on serotonin 1A receptor is greater than 200 nM; on serotonin 2 receptor, 3.9 nM.

Consider `COc1ccc2c(c1)C(N1CCN(CC(=O)c3ccc(F)cc3)CC1)CCC2` (stereo not shown) [Example 281, 1-{4-[2-(4-fluorophenyl)-2-oxoethyl]piperazin-1-yl}-7-methoxy-1,2,3,4-tetrahydronaphthalene Hydrochloride], for which the Ki stood at 35.2 nM at serotonin 1A receptor and 11.2 nM at serotonin 2 receptor.

With `COc1ccc2c(c1)C(N1CCN(CCc3ccc(F)cc3)CC1)CCCC2` (stereo not shown) [Example 282, 1-(4-fluorophenethyl)-4-(2-methoxybenzocycloheptan-9-yl)piperazine], the Ki at serotonin 1A receptor was 58.7 nM; at serotonin 2 receptor, 150 nM.

Turning to `Fc1ccc(CCN2CCC(N3CCc4cc5c(cc43)OCO5)CC2)cc1` [Example 284, 1-[1-(4-fluorophenethyl)piperidin-4-yl]-5,6-methylenedioxyindoline], the Ki amounted to 4.5 nM at serotonin 1A receptor and 4.7 nM at serotonin 2 receptor.

For the compound `Cn1cccc1-c1ccc2ccn(C3CCN(CCc4ccc(F)cc4)CC3)c2c1` [Example 287, 1-[1-(4-fluorophenethyl)piperidin-4-yl]-6-(1-methylpyrrol-2-yl)indole], the Ki is 0.1 nM on serotonin 1A receptor and greater than 200 nM at serotonin 2 receptor.

Consider `CC(=O)NCc1ccc(CCN2CCC(n3ccc4ccccc43)CC2)cc1` [Example 288, 1-[1-(4-acetamidomethylphenethyl)piperidin-4-yl]indole], for which the Ki on serotonin 1A receptor came to 0.2 nM; at serotonin 2 receptor, 0.1 nM.

Turning to `O=C(Cc1ccc2ccn(C3CCN(CCc4ccc(F)cc4)CC3)c2c1)NCCc1ccccn1` [Example 315, 1-[1-(4-fluorophenethyl)piperidin-4-yl]-6-[2-(pyridin-2-yl)ethyl]carbamoylmethylindole Oxalate], the Ki on serotonin 1A receptor was 6.74 nM; on serotonin 2 receptor, 1.18 nM.

In the case of `Fc1ccc(CCN2CCC(n3ccc4ccccc43)CC2)c(F)n1` [Example 332, 1-[1-(2,6-difluoro-3-pyridylethyl)piperidin-4-yl]indole], the Ki on serotonin 1A receptor came to 2.24 nM; on serotonin 2 receptor, 16.2 nM.

Regarding `Fc1ccc(CCN2CCC(n3ccc4ccc(F)cc43)CC2)cc1` [Example 333, 1-[1-(4-fluorophenethyl)piperidin-4-yl]-6-fluoroindole], the Ki on serotonin 1A receptor is 1.08 nM; on serotonin 2 receptor it was greater than 20 nM.

`CC(=O)NCc1ccc2ccn(C3CCN(CCc4ccc(F)cc4F)CC3)c2c1` [Example 357, 1-[1-(2,4-difluorophenethyl)piperidin-4-yl]-6-acetamidomethylindole]: the Ki on serotonin 1A receptor was 0.38 nM; on serotonin 2 receptor it was 1.3 nM.
